Results: patent US9499599B2, “Composition and methods for stimulating gastrointestinal motility” (Ipsen Pharma S.A.S., priority 2005, dated 2016)
pKi: −log10 of the molar value. Non-standard residues stand in square brackets, D forms with d. Residues, ends and D or L forms follow the SMILES beside them. No end group written: not given here. Ala(4-thiazolyl) = N[C@@H](Cc1cscn1)C(=O)O; d2Nal = N[C@H](Cc1ccc2ccccc2c1)C(=O)O; dBta = N[C@H](Cc1csc2ccccc12)C(=O)O; Api = NC1(C(=O)O)CCNCC1; Inp = O=C(O)C1CCNCC1

Tests used:
rats [1] = assay: In vivo study on intestinal transit, charcoal meal; set-up: species or system rat; conditions: fasted anesthetized rats, charcoal meal by esophageal gavage
Experimental: In the study, groups of eight rats were fasted for approximately 24 hours with free access to water. Anesthetized test subjects were administered native ghrelin, the selected analog and atropine as a control. The test subjects were administered a 2 ml charcoal meal by esophageal gavage approximately five minutes after the initial administration of ghrelin, the selected analog or atropine. After approximately an additional 25 minutes, the test subjects were sacrificed by cervical rupture and the small intestines were removed. The distance the charcoal traveled was measured from the pylorus.

male Sprague Dawley rats [2] = assay: In vivo gastric emptying, intravenous administration, phenol red meal; set-up: species or system rat; conditions: fasted anesthetized rats, administered intravenously
Experimental: Selected compounds of the invention can be and were tested to determine the effect of the compounds upon gastric emptying. […] Native ghrelin, the selected ghrelin analog and a metoclopramide control compound were administered intravenously to anesthetized test subjects. Approximately five minutes after the initial administration of native ghrelin, the selected ghrelin analog or the control compound, a 1.5 ml meal marked with phenol red (0.5 mg/ml phenol red and 1.5% methyl cellulose in whole milk) was administered to each test subject by esophageal gavage. After approximately an additional 20 minutes, the test subjects were sacrificed by cervical rupture and the stomachs removed and individually pulverized. The residual phenol red in the stomach of the test subjects was extracted and was measured spectrophometrically at a wavelength of 560 nm.

male Sprague Dawley rats [3] = assay: In vivo gastric emptying, subcutaneous administration, phenol red meal; set-up: species or system rat; conditions: fasted rats, injected subcutaneously, varying doses
Experimental: The animals were injected subcutaneously with either vehicle or varying doses of native ghrelin or selected ghrelin analogs. After approximately 15 minutes, 1.5 ml of a phenol red marked nutrient meal (0.5 mg/ml phenol red & 1.5% methyl cellulose in whole milk) was administered orally to the rats. […] The residual phenol red in the stomach was extracted and measured by spectrophotometric methods at a wavelength of 560 nm. […] (see Figures)

male Sprague Dawley rats [4] = assay: Effect on POI in rat (laparotomy-induced gastric ileus), gastric emptying; type: in vivo; conditions: 3 centimeter laparotomy, administered subcutaneously
rats [5] = conditions: cited from earlier work
mice = conditions: cited from earlier work
rats [6] = conditions: post-operative ileus model; cited from earlier work
laparectomized dogs = conditions: cited from earlier work
septic mice = conditions: cited from earlier work
Ferrets = conditions: ferrets exposed to cisplatin, intracerebroventricular administration; cited from earlier work
[7] = test system: patients with diabetic gastroparesis; conditions: cited from earlier work
[8] = biological target: T1, human recombinant GHS receptor (Homo sapiens, UniProt Q92847); assay: GHS-receptor binding assay, (125I)ghrelin displacement; conditions: 0.05 nM (125I)ghrelin, membranes of CHO-K1 cells expressing human recombinant GHS receptor, 60 min at 4° C.
T1 construct: The full length human GHS-R was subcloned into the mammalian expression vector pcDNA 3.1; expressed in transfected cells; membrane homogenates used
T1 sequence (Q92847 whole entry): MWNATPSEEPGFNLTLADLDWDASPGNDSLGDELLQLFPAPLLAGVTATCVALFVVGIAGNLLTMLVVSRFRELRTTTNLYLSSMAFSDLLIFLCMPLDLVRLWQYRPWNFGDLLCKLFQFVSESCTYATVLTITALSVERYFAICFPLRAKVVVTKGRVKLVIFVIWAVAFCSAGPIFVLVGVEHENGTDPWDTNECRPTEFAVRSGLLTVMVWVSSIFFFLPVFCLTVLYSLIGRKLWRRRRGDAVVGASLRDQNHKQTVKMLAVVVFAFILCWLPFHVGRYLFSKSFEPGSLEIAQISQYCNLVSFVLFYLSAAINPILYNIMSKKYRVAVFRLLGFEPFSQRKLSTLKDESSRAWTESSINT
Experimental: Membranes for radioligand binding studies can be and were prepared by homogenization of the foregoing CHO-K1 cells expressing the human recombinant GHS receptor. The cells were homogenized in 20 ml of ice-cold 50 mM Tris-HCl using a Brinkman Polytron® (Westbury, N.Y.; setting 6, 15 sec). The homogenates were washed twice by centrifugation (39,000 g/10 min) and the final pellets were resuspended in 50 mM Tris-HCl containing 2.5 mM MgCl2 and 0.1% bovine serum albumin (BSA).

| Molecule | effect on intestinal transit (distance the charcoal traveled from the pylorus) (rats [1]) | effect on gastric emptying (residual phenol red in stomach) (male Sprague Dawley rats [2]) | effect on gastric emptying (residual phenol red in stomach) (male Sprague Dawley rats [3]) | effect on gastric emptying under post-operative ileus conditions (male Sprague Dawley rats [4]) | effect on gastric emptying (rats [5]) | effect on gastric emptying (mice) | effect on gastric emptying (septic mice) | effect on transit in the small intestine (septic mice) | pKi [8] | other results |
| --- | --- | --- | --- | --- | --- | --- | --- | --- | --- | --- |
| NC(=O)C1(NC(=O)[C@H](Cc2ccccc2)NC(=O)[C@@H](Cc2c[nH]c3ccccc23)NC(=O)[C@@H](Cc2csc3ccccc23)NC(=O)C2CCNCC2)CCNCC1 [Example #19, H-Inp-D-Bal-D-Trp-Phe-Apc-NH2] (H-[Inp][dBta][dW]F[Api]-NH2) | accelerated gastric intestinal transit | accelerated gastric emptying | accelerated gastric emptying | significantly accelerated gastric emptying |  |  |  |  |  |  |
| H-Gly-Ser-Ser-Phe-Leu-Ser-Pro-Glu-His-Gln-Arg-Val-Gln-Gln-Arg-Lys-Glu-Ser-Lys-Lys-Pro-Pro-Ala-Lys-Leu-Gln-Pro-Arg-NH2 (H-GSSFLSPEHQRVQQRKESKKPPAKLQPR-NH2) [ghrelin, orexigenic hormone, native ligand for the GHS receptor] | accelerated gastric intestinal transit | accelerated gastric emptying | accelerated gastric emptying | significantly accelerated gastric emptying | accelerate gastric emptying | accelerate gastric emptying | accelerated gastric emptying | little effect upon increasing transit in the small intestine |  | effect on delay of gastric emptying (rats [6]): reverse the delay of gastric emptying; effect on POI (laparectomized dogs): improve POI; occurrences of retching and vomiting (Ferrets): significantly reduced occurrences of retching and vomiting; effect on gastric emptying [7]: increase gastric emptying |
| NCCCC[C@H](NC(=O)[C@H](Cc1ccccc1)NC(=O)[C@@H](Cc1c[nH]c2ccccc12)NC(=O)[C@@H](Cc1ccc2ccccc2c1)NC(=O)C1CCNCC1)C(N)=O [Example #2, Inp-D-2-Nal-D-Trp-Phe-Lys-NH2] (HELM PEPTIDE1{[O=C(C1CCNCC1)[*:2]].[O=C([C@@H](Cc1ccc2ccccc2c1)N[*:1])[*:2]].[dW].F.K.[am]}$$$$V2.0) |  |  |  |  |  |  |  |  | 9.52 |  |
| His-D-Trp-Ala-Trp-D-Phe-Lys-amide (H[dW]AW[dF]K-NH2) [GHRP-6] |  |  |  |  | accelerate gastric emptying | accelerate gastric emptying | accelerated gastric emptying | little effect upon increasing transit in the small intestine |  |  |
| NCCCC[C@H](NC(=O)[C@H](Cc1cscn1)NC(=O)[C@@H](Cc1c[nH]c2ccccc12)NC(=O)[C@@H](Cc1ccc2ccccc2c1)NC(=O)C1CCNCC1)C(N)=O [Example #37, H-Inp-D-2-Nal-D-Trp-Taz-Lys-NH2] (H-[Inp][d2Nal][dW][Ala(4-thiazolyl)]K-NH2) |  |  |  |  |  |  |  |  | 9.10 |  |
